In patent US11407723B2, “Selective histone deacetylase inhibitors for the treatment of human disease” (Shuttle Pharmaceuticals, Inc., priority 2018, dated 2022):

How the values were obtained:
Assay type in all cases: biochemical
HDAC1 protein = HDAC1 protein (Homo sapiens, UniProt Q13547); assay: in vitro HDAC enzyme inhibition assay, HDAC1 (selectivity of HDAC6 over HDAC1); settings: HDAC6 vs HDAC1
Experimental: (§1) The compounds were tested against Pan HDAC, HDAC1, HDAC3, and HDAC6 proteins in vitro.

HDAC3 protein = HDAC3 protein (Homo sapiens, UniProt O15379); assay: in vitro HDAC enzyme inhibition assay, HDAC3 (selectivity of HDAC6 over HDAC3); settings: HDAC6 vs HDAC3
Experimental: as §1

HDAC6 protein = target: T1, HDAC6 protein (Homo sapiens, UniProt Q9UBN7); assay: in vitro HDAC enzyme inhibition assay, HDAC6; settings: for inhibitory activity against HDAC6 protein: FIGS. 1 and 2A-2C
T1 sequence (Q9UBN7 1-1215): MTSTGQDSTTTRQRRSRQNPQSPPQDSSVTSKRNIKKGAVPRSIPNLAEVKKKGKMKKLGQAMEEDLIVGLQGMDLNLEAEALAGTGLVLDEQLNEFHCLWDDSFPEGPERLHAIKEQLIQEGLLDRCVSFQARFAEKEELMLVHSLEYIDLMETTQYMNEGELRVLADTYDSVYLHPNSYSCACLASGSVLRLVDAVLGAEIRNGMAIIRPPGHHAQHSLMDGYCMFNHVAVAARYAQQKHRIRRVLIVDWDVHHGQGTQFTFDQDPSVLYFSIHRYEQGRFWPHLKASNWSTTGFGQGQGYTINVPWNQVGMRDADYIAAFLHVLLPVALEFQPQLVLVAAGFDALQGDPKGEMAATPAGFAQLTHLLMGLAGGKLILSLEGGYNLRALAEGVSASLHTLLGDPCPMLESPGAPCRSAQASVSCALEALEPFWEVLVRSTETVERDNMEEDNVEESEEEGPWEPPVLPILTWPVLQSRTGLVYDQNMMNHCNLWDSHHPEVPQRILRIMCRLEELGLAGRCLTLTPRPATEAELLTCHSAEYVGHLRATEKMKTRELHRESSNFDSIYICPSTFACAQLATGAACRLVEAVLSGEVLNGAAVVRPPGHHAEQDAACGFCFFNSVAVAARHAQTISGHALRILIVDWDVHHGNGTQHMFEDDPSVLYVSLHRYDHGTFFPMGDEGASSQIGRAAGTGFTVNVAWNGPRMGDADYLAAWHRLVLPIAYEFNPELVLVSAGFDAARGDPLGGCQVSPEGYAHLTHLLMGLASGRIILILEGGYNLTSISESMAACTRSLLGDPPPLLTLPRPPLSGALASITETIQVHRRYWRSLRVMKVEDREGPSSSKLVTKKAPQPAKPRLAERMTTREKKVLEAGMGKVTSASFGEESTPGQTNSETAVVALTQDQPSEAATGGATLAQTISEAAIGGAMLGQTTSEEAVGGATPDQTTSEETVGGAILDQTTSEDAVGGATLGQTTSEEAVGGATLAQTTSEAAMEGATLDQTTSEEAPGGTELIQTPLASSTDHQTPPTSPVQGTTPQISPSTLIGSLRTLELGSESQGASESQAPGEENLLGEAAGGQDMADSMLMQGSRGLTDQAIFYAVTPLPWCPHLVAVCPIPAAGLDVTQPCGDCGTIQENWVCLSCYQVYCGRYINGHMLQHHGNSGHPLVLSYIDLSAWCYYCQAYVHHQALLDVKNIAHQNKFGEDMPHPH
Experimental: as §1

Sequence of HDAC3 protein (O15379 whole entry): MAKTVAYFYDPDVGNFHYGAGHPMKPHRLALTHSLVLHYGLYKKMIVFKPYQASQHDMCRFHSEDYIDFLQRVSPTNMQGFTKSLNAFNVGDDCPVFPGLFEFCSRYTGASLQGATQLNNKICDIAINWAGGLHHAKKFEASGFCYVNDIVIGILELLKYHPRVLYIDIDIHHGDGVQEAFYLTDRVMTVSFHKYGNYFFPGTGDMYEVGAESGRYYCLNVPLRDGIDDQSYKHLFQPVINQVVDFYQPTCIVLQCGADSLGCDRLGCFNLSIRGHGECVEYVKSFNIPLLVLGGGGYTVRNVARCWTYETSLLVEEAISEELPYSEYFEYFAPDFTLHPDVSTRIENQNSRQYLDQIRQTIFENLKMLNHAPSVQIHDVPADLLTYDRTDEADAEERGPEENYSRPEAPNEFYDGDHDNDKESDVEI
Sequence of HDAC3 protein (Q9Y618 395-489 partner limits assumed): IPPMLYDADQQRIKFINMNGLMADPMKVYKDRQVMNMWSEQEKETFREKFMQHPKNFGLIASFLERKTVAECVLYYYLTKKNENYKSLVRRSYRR
Sequence of HDAC1 protein (Q13547 whole entry): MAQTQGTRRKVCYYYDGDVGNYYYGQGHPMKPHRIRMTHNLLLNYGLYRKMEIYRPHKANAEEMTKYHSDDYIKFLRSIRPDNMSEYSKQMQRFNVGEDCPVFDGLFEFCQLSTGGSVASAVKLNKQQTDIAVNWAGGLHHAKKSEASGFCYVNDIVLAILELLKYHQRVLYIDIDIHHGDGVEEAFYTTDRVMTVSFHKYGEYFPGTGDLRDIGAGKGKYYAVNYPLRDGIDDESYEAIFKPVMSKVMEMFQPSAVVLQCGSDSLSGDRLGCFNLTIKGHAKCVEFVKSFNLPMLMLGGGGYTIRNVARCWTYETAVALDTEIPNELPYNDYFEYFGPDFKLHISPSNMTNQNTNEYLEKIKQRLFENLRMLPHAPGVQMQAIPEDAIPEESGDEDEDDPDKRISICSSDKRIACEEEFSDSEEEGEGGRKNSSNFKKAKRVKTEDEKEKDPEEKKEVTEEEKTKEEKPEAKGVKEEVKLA

SMILES	times more selective for HDAC6 as compared to HDAC1 (HDAC1 protein)	times more selective for HDAC6 as compared to HDAC3 (HDAC3 protein)	inhibitory activity against HDAC6 protein (HDAC6 protein)	selectivity for HDAC6 as compared to Pan-HDACs, HDAC1 and HDAC3 (in words) (HDAC6 protein)
Cc1nnc(NS(=O)(=O)c2ccc(NC(=O)CCCCCCC(=O)NO)cc2)s1 [SP-2-213, N^1-hydroxy-N^8-(4-(N-(5-methyl-1,3,4-thiadiazol-2-yl)sulfamoyl)phenyl) octanediamide]	about 4 times	about 12 times	inhibitors of HDAC6	selective inhibitors of HDAC6
Cc1cc(CNCCCCCC(=O)NO)ccc1OCc1cccc(-c2ccccc2)c1C [SP-2-225, N-hydroxy-6-((3-methyl-4-((2-methyl-[1,1′-biphenyl]-3-yl)methoxy)benzyl)amino)hexanamide]	about 65 times	about 22 times	inhibitors of HDAC6	selective inhibitors of HDAC6
